Columns and labels:
[1] = Aqueous solubility of the compound; type: physicochemical; conditions: aqueous medium
[2] = Dissociation constant, pKa of the compound; type: physicochemical
[3] = Tmax in rat at 10 mg/kg, po; type: ADME, organism-based; conditions: in vivo
[4] = Oral bioavailability in rat at 10 mg/kg; type: ADME, organism-based; conditions: in vivo
[5] = Lipophilicity, log P of the compound; type: physicochemical; conditions: octanol/water

Row | solubility [1] | pKa [2] | Tmax [3] | bioavailability [4] | logP [5] | Structure (SMILES)
1 | < 0.01 mg/mL | – | – | – | – | COc1ccccc1S(=O)(=O)/C=C/c1ccccc1Cl
2 | > 30 mg/mL | 7.58 | 24 min | 45.3% | 2.29 | Cl.O=S(=O)(/C=C/c1ncccc1F)c1ccc(OCCCN2CCOCC2)cc1

From ChEMBL document CHEMBL4330092, “Optimization of Vinyl Sulfone Derivatives as Potent Nuclear Factor Erythroid 2-Related Factor 2 (Nrf2) Activators for Parkinson's Disease Therapy” (J Med Chem, 2019)
